The numbers were not newly measured in patent publication US20220105100A1, “SAFE BRINZOLAMIDE AND BRIMONIDINE COMPOSITIONS WITH ENHANCED BENZALKONIUM CHLORIDE CONTENT” (Somerset Therapeutics, LLC, priority 2020, published 2022), which cites them from elsewhere.

For this series the following is noted: laboratory, experimental, and clinical studies.

With benzalkonium chloride, the ophthalmological side effects entry is “causing tear film instability, loss of goblet cells, conjunctival squamous metaplasia and apoptosis, disruption of the conical epithelium barrier, and damage to deeper ocular tissues”.
